Experimental data as given in ChEMBL document CHEMBL1141300, “Putrescine bisamides from Aglaia gigantea” (J Nat Prod, 2007).
Active and inactive are the calls of the source. No cut-off for these calls is given here.

Tested on: Spodoptera littoralis
Assay: Insecticidal activity against Spodoptera littoralis after 6 days
Format: functional, organism-based

Row | SMILES | Activity
1 | CC1=CC(O)N(CCCCNC(=O)/C=C/c2ccccc2)C1=O (configuration not stated) | inactive
2 | C=C(C(=O)NCCCCNC(=O)/C=C/c1ccccc1)[C@@H](O)CO | inactive
